Molecules are shown by their SMILES.

Format in all cases: in vivo
Assay [1] deals with Amaranthus retoflexus (AMARE). Description: Post-emergence biological efficacy, glasshouse pot test. To be noted: Amaranthus retroflexus, 312 h; Rate 1,000 g/ha; post-emergence spray; evaluated after 13 days (100=total damage to plant; 0=no damage to plant); read-out: Percentage damage caused to weed species, post-emergence, AMARE. The method in brief: (§1)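 Scored 13 days after spraying on a 0 (no damage) to 100 (total damage) scale. Treatment was a post-emergence spray at 1000 or 250 g/ha, from acetone/water 50:50 plus 0.5% Tween 20, onto 8-day-old plants in soil pots. Growth at 24/16° C, 14 h photoperiod, 65% humidity, watered twice daily.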

For assay [2], the system named is Alopecurus myosuroides (ALOMY). The assay is described as above. To be noted: 312 h, Rate 1,000 g/ha, post-emergence spray, evaluated after 13 days (100=total damage to plant; 0=no damage to plant), read-out: Percentage damage caused to weed species, post-emergence, ALOMY. The method in brief:
as §1

Assay [3] deals with Setaria faberi (SETFA). The description is as above. Particulars: 312 h, Rate 1,000 g/ha, post-emergence spray, evaluated after 13 days (100=total damage to plant; 0=no damage to plant), read-out: Percentage damage caused to weed species, post-emergence, SETFA. The method in brief:
as §1

In assay [4] the test system is Ipomea hederaceae (IPOHE). Described as above. Particulars: Ipomoea hederacea, 312 h; Rate 1,000 g/ha; post-emergence spray; evaluated after 13 days (100=total damage to plant; 0=no damage to plant); read-out: Percentage damage caused to weed species, post-emergence, IPOHE. The gist of the method: as §1
Assay [5] has as its system Echinochloa crus-galli (ECHCG). The description is as above. Particulars: 312 h, Rate 1,000 g/ha, post-emergence spray, evaluated after 13 days (100=total damage to plant; 0=no damage to plant), read-out: Percentage damage caused to weed species, post-emergence, ECHCG. The method in brief:
as §1

Assay [6] deals with Solanum nigrum (SOLNI). The description is as above. To be noted: 312 h, Rate 1,000 g/ha, post-emergence spray, evaluated after 13 days (100=total damage to plant; 0=no damage to plant), read-out: Percentage damage caused to weed species, post-emergence, SOLNI. The gist of the method:
as §1

For assay [7], the system named is Amaranthus retoflexus (AMARE). Nature of the assay: Pre-emergence biological efficacy, glasshouse pot test. To be noted: Amaranthus retroflexus, 312 h; pre-emergence, rate 1,000 g/ha, evaluated after 13 days (100=total damage to plant; 0=no damage); read-out: Percentage damage caused to weed species, AMARE. The method in brief: (§2)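 Damage was rated on a 0–100 scale 13 days after treatment, with plants kept at 24/16° C, 14 h light and 65% humidity. The pre-emergence spray, at 1000 or 250 g/ha in acetone/water 50:50 with 0.5% Tween 20, was applied one day after sowing.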

Assay [8] concerns Alopecurus myosuroides (ALOMY). The description is as above. To be noted: 312 h, pre-emergence, rate 1,000 g/ha, evaluated after 13 days (100=total damage to plant; 0=no damage), read-out: Percentage damage caused to weed species, ALOMY. The gist of the method:
as §2

For assay [9], the system named is Setaria faberi (SETFA). The description is as above. To be noted: 312 h, pre-emergence, rate 1,000 g/ha, evaluated after 13 days (100=total damage to plant; 0=no damage), read-out: Percentage damage caused to weed species, SETFA. The method in brief: as §2
The subject of assay [10] is Ipomea hederaceae (IPOHE). The description is as above. To be noted: Ipomoea hederacea, 312 h; pre-emergence, rate 1,000 g/ha, evaluated after 13 days (100=total damage to plant; 0=no damage); read-out: Percentage damage caused to weed species, IPOHE. The method in brief: as §2
Assay [11] deals with Echinochloa crus-galli (ECHCG). The assay is described as above. Particulars: 312 h, pre-emergence, rate 1,000 g/ha, evaluated after 13 days (100=total damage to plant; 0=no damage), read-out: Percentage damage caused to weed species, ECHCG. The method in brief: as §2
In assay [12] the test system is Solanum nigrum (SOLNI). The description is as above. Particulars: 312 h, pre-emergence, rate 1,000 g/ha, evaluated after 13 days (100=total damage to plant; 0=no damage), read-out: Percentage damage caused to weed species, SOLNI. The gist of the method: as §2

In the case of `CCOC(=O)c1nc(C2CC2)nc(NCc2ccccc2)c1Cl` [Compound 7-60, 5-chloro-2-cyclopropyl-6-ethoxycarbonyl-4-phenylmethyl-aminopyrimidine], the pest or weed control at 1000 g/ha in assay [1] stood at 100%; in [2] it was 30%; in the assay on Setaria faberi (SETFA) [3], 90%; in [4], 90%; in assay [5], 70%; in the assay with Solanum nigrum (SOLNI) [6], 90%. The pest or weed control at 1000 g/ha in [7] was 70%; in [8], 30%; in the assay on Setaria faberi (SETFA) [9] it was 50%; in assay [10] it was 70%; in assay [11] it was 50%; with Solanum nigrum (SOLNI) [12] it was 90%.
As to `CCOC(=O)c1nc(C2CC2)nc(NCc2ccco2)c1Cl` [Compound 7-125, 5-Chloro-2-cyclopropyl-6-ethoxycarbonyl-4-(2-furanylmethyl-amino)pyrimidine], the pest or weed control at 1000 g/ha in [1] was found to be 100%; in assay [2] it was 90%; in the assay with Setaria faberi (SETFA) [3], 90%; in assay [4] it was 100%; in [5], 80%; in the assay on Solanum nigrum (SOLNI) [6], 90%. The pest or weed control at 1000 g/ha in [7] worked out at 100%; in assay [8], 60%; with Setaria faberi (SETFA) [9], 80%; in assay [10] it was 100%; in assay [11], 90%; in the assay on Solanum nigrum (SOLNI) [12], 100%.
As for `O=C(O)c1nc(-c2ccc(Cl)cc2)nc(NCc2ccco2)c1Cl` [Compound 37-125, 5-Chloro-2-(4-chlorophenyl)-4-(furan-2-ylmethylamino)-pyrimidine-6-carboxylic acid], the pest or weed control at 1000 g/ha in assay [1] was determined as 100%; in assay [2], 70%; with Setaria faberi (SETFA) [3] it was 100%; in assay [4], 100%; in assay [5], 90%; in the assay on Solanum nigrum (SOLNI) [6], 100%. In addition, the pest or weed control at 1000 g/ha in [7] was 100%; in assay [8], 50%; in the assay on Setaria faberi (SETFA) [9], 90%; in [10] it was 40%; in assay [11] it was 90%; with Solanum nigrum (SOLNI) [12] it was 100%.
In the case of `COC(=O)c1nc(-c2ccc(Cl)cc2)nc(NC2CC2)c1Cl` [Compound 40-1, 5-Chloro-2-(4-chloro-phenyl)-4-cyclo-propylamino-6-methoxycarbonyl-pyrimidine], the pest or weed control at 1000 g/ha in assay [1] amounted to 100%; in assay [2], 40%; in the assay on Setaria faberi (SETFA) [3], 90%; in [4], 70%; in assay [5] it was 50%; in the assay on Solanum nigrum (SOLNI) [6], 100%. Besides, the pest or weed control at 1000 g/ha worked out at 100% in assay [7]; 40% in [8]; 30% in the assay with Setaria faberi (SETFA) [9]; 30% in [10]; 50% in assay [11]; 40% in the assay on Solanum nigrum (SOLNI) [12].
As for `COC(=O)c1nc(-c2ccc(Cl)cc2)nc(NCc2ccccc2)c1Cl` [Compound 40-60, 5-Chloro-2-(4-chlorophenyl)-6-methoxycarbonyl-4-(phenylmethylamino) pyrimidine], the pest or weed control at 1000 g/ha turned out to be 60% in assay [1]; 0% in assay [2]; 0% with Setaria faberi (SETFA) [3]; 100% in assay [4]; 0% in assay [5]; 70% in the assay with Solanum nigrum (SOLNI) [6]. Further, the pest or weed control at 1000 g/ha in assay [7] came out at 90%; in assay [8], 20%; with Setaria faberi (SETFA) [9], 0%; in [10], 0%; in [11] it was 50%; in the assay on Solanum nigrum (SOLNI) [12] it was 30%.
On to `C=Cc1c(NCc2ccco2)nc(-c2ccc(Cl)cc2)nc1C(=O)OC` [Compound 67-125, 2-(4-Chlorophenyl)-5-ethenyl-4-(furan-2-ylmethylamino)-6-methoxycarbonyl-pyrimidine], for which the pest or weed control at 1000 g/ha in [1] came to 100%; in assay [2] it was 30%; with Setaria faberi (SETFA) [3], 0%; in assay [4], 80%; in assay [5] it was 40%; in the assay with Solanum nigrum (SOLNI) [6], 90%. The pest or weed control at 1000 g/ha came out at 100% in [7]; 50% in assay [8]; 10% in the assay on Setaria faberi (SETFA) [9]; 40% in assay [10]; 20% in assay [11]; 20% in the assay with Solanum nigrum (SOLNI) [12].
For `COc1c(Cl)ccc(-c2nc(NCC3CC3)c(Cl)c(C(=O)O)n2)c1F` [Compound 109-43, 5-Chloro-2-(4-chloro-2-fluoro-3-methoxyphenyl)-4-cyclopropylmethyl-aminopyrimidine-6-carboxylic acid], the pest or weed control at 1000 g/ha in [1] was found to be 100%; in [2], 90%; in the assay with Setaria faberi (SETFA) [3], 90%; in assay [4] it was 80%; in assay [5], 100%; in the assay on Solanum nigrum (SOLNI) [6], 100%. Besides, the pest or weed control at 1000 g/ha in assay [7] is 100%; in assay [8], 10%; in the assay on Setaria faberi (SETFA) [9], 60%; in assay [10] it was 70%; in assay [11], 30%; with Solanum nigrum (SOLNI) [12] it was 90%.
Turning to `COc1c(Cl)ccc(-c2nc(NCc3ccco3)c(Cl)c(C(=O)O)n2)c1F` [Compound 109-125, 5-Chloro-2-(4-chloro-2-fluoro-3-methoxyphenyl)-4-(furan-2-yl-methyl-amino)pyrimidine-6-carboxylic acid], the pest or weed control at 1000 g/ha in [1] came to 100%; in assay [2], 70%; in the assay with Setaria faberi (SETFA) [3], 90%; in assay [4] it was 100%; in assay [5] it was 80%; with Solanum nigrum (SOLNI) [6], 90%. The pest or weed control at 1000 g/ha worked out at 100% in assay [7]; 70% in assay [8]; 90% in the assay with Setaria faberi (SETFA) [9]; 100% in assay [10]; 90% in [11]; 100% in the assay with Solanum nigrum (SOLNI) [12].
Turning to `COC(=O)c1nc(-c2ccc(Cl)c(OC)c2F)nc(NCC2CC2)c1Cl` [Compound 112-43, 5-Chloro-2-(4-chloro-2-fluoro-3-methoxy-phenyl)-4-cyclo-propylmethylamino-6-methoxycarbonyl-pyrimidine], the pest or weed control at 1000 g/ha came out at 100% in assay [1]; 40% in assay [2]; 80% in the assay on Setaria faberi (SETFA) [3]; 70% in assay [4]; 80% in [5]; 90% in the assay with Solanum nigrum (SOLNI) [6]. Besides, the pest or weed control at 1000 g/ha in assay [7] is 60%; in [8] it was 40%; in the assay with Setaria faberi (SETFA) [9], 30%; in [10], 80%; in assay [11] it was 60%; in the assay on Solanum nigrum (SOLNI) [12] it was 70%.

The record behind these values is patent US20110086759A1, “CHEMICAL COMPOUNDS” (SYNGENTA CROP PROTECTION, INC., priority 2007, published 2011).
